Experimental data taken from ChEMBL document CHEMBL6078657, “Thiazolidinedione-based structure modification of ergosterol peroxide provides thiazolidinedione-conjugated derivatives as potent agents against breast cancer cells through a PI3K/AKT/mTOR pathway” (Bioorg Med Chem, 2025).
The source made the active and inactive calls. The rule behind the calls is not given here.

How the values were obtained:
MCF7 [1] = assay: Induction of apoptosis in human MCF7 cells assessed as late apoptotic cells at 1 uM measured after 48 hrs incubation by Annexin V-FITC/PI double staining assay (reference value: 0.68%); assay type: functional
MCF7 [2] = assay: Induction of apoptosis in human MCF7 cells assessed as viable cells at 1 uM measured after 48 hrs incubation by Annexin V-FITC/PI double staining assay (reference value: 92.8%); assay type: functional; details: read-out: Activity
MCF7 [3] = assay: Induction of apoptosis in human MCF7 cells assessed as late apoptotic cells at 6 uM measured after 48 hrs incubation by Annexin V-FITC/PI double staining assay (reference value: 0.68%); assay type: functional
MCF7 [4] = assay: Induction of apoptosis in human MCF7 cells assessed as necrotic cells at 6 uM measured after 48 hrs incubation by Annexin V-FITC/PI double staining assay (reference value: 0.77%); assay type: functional
MCF7 [5] = assay: Induction of apoptosis in human MCF7 cells assessed as early apoptotic cells at 3 uM measured after 48 hrs incubation by Annexin V-FITC/PI double staining assay (reference value: 5.73%); assay type: functional
MCF7 [6] = assay: Induction of apoptosis in human MCF7 cells assessed as increase in ROS production by measuring bright green fluorescence measured after 48 hrs incubation by DCFH-DA staining based flow cytometry assay; assay type: functional, cell-based; details: dose 1-6 µM
MCF7 [7] = assay: Induction of cell cycle arrest in human MCF7 cells assessed as accumulation of cells at G0/G1 phase at 6 uM measured after 48 hrs by PI staining based flow cytometry analysis (reference value: 58.42%); assay type: functional
[8] = Antiproliferative activity against human MCF-10A cells assessed as cell viability measured after 48 hrs incubation by MTT assay; assay type: toxicity, cell-based
MCF7 [9] = assay: Induction of apoptosis in human MCF7 cells assessed as viable cells at 3 uM measured after 48 hrs incubation by Annexin V-FITC/PI double staining assay (reference value: 92.8%); assay type: functional; details: read-out: Activity
[10] = Toxicity in healthy BALB/c mouse assessed as pathological changes in heart at 20 mg/kg, ip daily for 14 consecutive days by HE staining based assay; assay type: organism-based; details: in vivo, 336 h, time 14 day
[11] = molecular target: Serine/threonine-protein kinase mTOR (Homo sapiens) (UniProt P42345); assay: Inhibition of phosphorylation of mTOR in human MCF7 cells measured after 48 hrs by Western blot analysis; assay type: cell-based; details: dose 1-6 µM
MCF7 [12] = assay: Induction of cell cycle arrest in human MCF7 cells assessed as accumulation of cells at S phase at 3 uM measured after 48 hrs by PI staining based flow cytometry analysis (reference value: 24.67%); assay type: functional

CC(C)[C@@H](C)/C=C/[C@@H](C)[C@H]1CC[C@@H]2[C@]1(C)CC[C@H]1[C@]23C=C[C@]2(C[C@@H](OC(=O)NCCNC(=O)CN4C(=O)S/C(=C\c5cccc6ccccc56)C4=O)CC[C@]12C)OO3
Activity (MCF7 [1]): 0.9%
viability at 1 µM (MCF7 [2]): 84.4%
Activity (MCF7 [3]): 1.75%
Activity (MCF7 [4]): 0.72%
Activity (MCF7 [5]): 22.8%
Activity (MCF7 [6]): Active
Activity (MCF7 [7]): 89.86%
IC50 at 48 h [8]: 32.3 µM
viability at 3 µM (MCF7 [9]): 75.7%
Activity [10]: Non-toxic
inhibition [11]: Dose-dependent-effect
Activity (MCF7 [12]): 8.41%
